Biological target: human μ-opioid receptor (Homo sapiens, UniProt P35372)
Type: cell-based
Conditions: read-out: EC50, μM (PAM mode)

human μ-opioid receptor, sequence (P35372 whole entry): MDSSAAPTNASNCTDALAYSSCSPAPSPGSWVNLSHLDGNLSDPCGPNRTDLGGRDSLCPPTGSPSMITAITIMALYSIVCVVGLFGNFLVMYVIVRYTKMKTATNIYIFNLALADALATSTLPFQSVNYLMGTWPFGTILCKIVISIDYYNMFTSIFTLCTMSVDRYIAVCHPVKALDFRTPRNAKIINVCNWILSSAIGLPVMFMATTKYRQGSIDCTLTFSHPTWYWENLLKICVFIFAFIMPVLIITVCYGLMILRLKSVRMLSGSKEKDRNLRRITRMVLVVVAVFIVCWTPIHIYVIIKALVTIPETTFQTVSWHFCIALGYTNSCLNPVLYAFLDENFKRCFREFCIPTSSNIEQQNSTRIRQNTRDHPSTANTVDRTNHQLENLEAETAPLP

Compound: COc1ccc(C2SCCN2S(=O)(=O)c2ccc(Cl)cc2)cc1Br (stereo not shown) [BMS-986122]
- EC50: 16.2 µM
